Laboratory results as given in patent US10994016B2, “Graphene oxide mediated cellular delivery of gadolinium-labeled molecules” (Northwestern University, priority 2015, dated 2021).
Values joined by “and” are separate entries in the source; they are usually repeats but may differ in a detail not shown here. Equal values may be shown once.

Key:
[1] = Octanol-water partition coefficients; format: physicochemical; conditions: errors show SEM; Gd in each layer by ICP-MS
Method: Approximately 1 mg of each compound was dissolved in 1 mL of a 1:1 mixture of water/1-octanol. After shaking the sample tube vigorously for 30 s, the tube was placed on a rotator for gentle mixing over 6 h. The tube was then removed from the rotator and allowed to sit for 12 h to ensure complete separation of the aqueous and organic phases. […] Once separation was complete, 10 μL was removed from each layer to determine the concentration of Gd by ICP-MS. The partition coefficient was calculated from the following equation: log10P=log10(Co/Cw), where log10 P is the logarithm of the partition coefficient, Co is the concentration of Gd in the 1-octanol layer, and Cw is the concentration of Gd in the water layer.

HeLa cells = test: Cellular delivery studies with and without GO co-incubation, HeLa; format: cell-based; conditions: for Gd content (fmol/cell): 24 h, replicate values; for Gd content (fmol/cell), Outliers: values removed as outliers (Chauvenet's criterion, * experimenter judgment)
Method: ICP-MS Samples were prepared in 15-mL conical tubes by adding ACS reagent grade nitric acid (70%), followed by incubation at 70° C. overnight to allow for complete sample digestion. The effectiveness of this digestion protocol was previously validated for GO. After incubation, a multi-element internal standard (containing Bi, Ho, In, Li, Sc, Tb, and Y, Inorganic Ventures, Christiansburg, Va.) and milli-Q water (18.2 MΩ·cm) were added to produce a final sample of 3% (v/v) nitric acid and 5 ng/mL internal standard.
ICP-MS was performed on a computer-controlled (Plasmalab software) Thermo X series II ICP-MS (Thermo Fisher Scientific, Waltham, Mass., USA) operating in standard mode equipped with an ESI SC-2 autosampler (Omaha, Nebr., USA). Each sample was acquired using 1 survey run (10 sweeps) and 3 main (peak jumping) runs (100 sweeps). The isotopes selected for analysis were Gd with In and Ho isotopes selected as internal standards for data interpolation. Instrument performance is optimized daily through an autotune followed by verification via a performance report (passing manufacturer specifications). Instrument calibration was accomplished by preparing individual-element Gd standards (Inorganic Ventures, Christiansburg, Va., USA) using concentrations of 0.78125, 1.5625, 3.125, 6.25, 12.50, 25.00, 50.00, 100.0, and 200.0 ng/mL containing 3.0% nitric acid (v/v) and 5.0 ng/mL of multi-element internal standard.
Dulbecco's modified phosphate buffered saline (DPBS), media, and dissociation reagents were purchased from Life Technologies (Carlsbad, Calif.). CorningBrand® cell culture consumables (flasks, plates, etc.) and sera were purchased from VWR Scientific (Radnor, Pa.). HeLa cells (ATCC® CCL-2™) and KB cells (ATCC® CCL-17™) were purchased from the American Type Culture Collection (ATCC, Manassas, Va.) and cultured in phenol red-free minimum essential media (MEM) supplemented with 10% fetal bovine serum (FBS). Prior to all experiments, cells were plated and allowed to incubate for 24 hours before dosing. Cells were harvested with 0.25% TrypLE for 5 minutes at 37° C. in a 5.0% CO2 incubator. For sterilization, all Gd(III)-labeled molecules were filtered with 0.2 μm sterile filters prior to concentration determination and storage at 4° C. GO was used as prepared without further sterilization. […] Cells were grown in a humidified incubator operating at 37° C. and 5.0% CO2.
Cell counting was conducted using a Guava EasyCyte Mini Personal Cell Analyzer (EMD Millipore, Billerica, Mass.). After cell harvesting, an aliquot (50 μL) of the cell suspensions was mixed with Guava ViaCount reagent (150 μL) and allowed to stain at room temperature for at least 5 minutes. The dilution factor of 4 was determined based upon optimum machine performance (20-150 cells/μL). After vortexing for 10 sec, stained cells were counted using a Guava EasyCyte Mini Personal Cell Analyzer (PCA) using the ViaCount software module. For each sample, 1000 events were acquired. Gating of live/dead and cell/debris classifications were performed manually by the operator.
Cellular delivery studies were performed with HeLa and KB cells. HeLa and KB were plated at a cell density of approximately 25,000 and 50,000 cells per well, respectively, in a 24-well plate as counted by a hemocytometer. Stock solutions of 1-14 (1 mM), 150 nm GO (100 μg/mL), and 1500 nm GO (100 μg/mL) were prepared using sterile Milli-Q water. Prior to dosing, 80 μL ([…]) of each GO (150 nm and 1500 nm) and 80 μL (80 nmol) of each Gd(III)-labeled molecule (1-14) were mixed and allowed to adsorb for at least 15 minutes. 150 μL Gd(III)-GO solutions were added to 250 μL media to give a final concentration of 188 μM Gd and 18.8 μg/mL GO. Cells were incubated with the mixture of Gd(III)-labeled molecules and GO for […]. To harvest, cells were rinsed in-plate three times with 500 μL PBS and trypsinized using 100 μL 0.25% TrypLE. […]

[2] = +150 nm GO co-incubation, 188 μM Gd(III), 18.8 μg/mL GO
[3] = +1500 nm GO co-incubation, 188 μM Gd(III), 18.8 μg/mL GO
[4] = molecule alone, without GO, 188 μM Gd(III), 24-well plate

Structure (SMILES) | Water-Octanol LogP [1] | Gd content (fmol/cell) (HeLa cells; [2]) | Gd content (fmol/cell) (HeLa cells; [3]) | Gd content (fmol/cell), Outliers (HeLa cells; +1500 nm GO) | Gd content (fmol/cell) (HeLa cells; [4]) | Gd content (fmol/cell), Outliers (HeLa cells; +150 nm GO) | Gd content (fmol/cell), Outliers (HeLa cells; molecule alone, without GO) | Delivery enhancement without adsorption time (HeLa cells; 1500 nm GO, 188 μM Gd(III), 18.8 μg/mL GO)
O=C([O-])CN1CCN(CC(=O)[O-])CCN(CC(=O)[O-])CCN(CC(=O)[O-])CC1.[Gd+3] [Molecule 14] | −3.62 ± 0.23 | 0.35 fmol/cell and 0.26 fmol/cell and 0.21 fmol/cell | 0.34 fmol/cell and 0.21 fmol/cell and 0.18 fmol/cell and 0.31 fmol/cell | 4.32 fmol/cell | 0.22 fmol/cell and 0.31 fmol/cell and 0.20 fmol/cell | – | – | –
O=C([O-])CN1CCN(CC(=O)[O-])CCN(CC(O)Cn2cc(CCCC(=O)O)nn2)CCN(CC(=O)[O-])CC1.[Gd+3] (centres unmarked) [Molecule 4] | −3.44 ± 0.28 | 0.31 fmol/cell and 0.23 fmol/cell (2×) and 0.33 fmol/cell and 0.25 fmol/cell and 0.13 fmol/cell and 0.16 fmol/cell and 0.17 fmol/cell and 0.20 fmol/cell and 0.29 fmol/cell and 0.22 fmol/cell | 0.58 fmol/cell and 0.27 fmol/cell and 0.33 fmol/cell and 0.30 fmol/cell and 0.31 fmol/cell and 0.53 fmol/cell | 1.00 fmol/cell | 0.51 fmol/cell and 0.26 fmol/cell and 0.25 fmol/cell and 0.23 fmol/cell and 0.34 fmol/cell and 0.36 fmol/cell | 0.66 fmol/cell and 0.76 fmol/cell and 0.62 fmol/cell | 0.76 fmol/cell | –
CC(O)CN1CCN(CC(=O)[O-])CCN(CC(=O)[O-])CCN(CC(=O)[O-])CC1.[Gd+3] (centres unmarked) [Molecule 13] | −3.59 ± 0.16 | 1.09 fmol/cell and 1.47 fmol/cell and 1.02 fmol/cell | 1.36 fmol/cell and 1.84 fmol/cell and 0.82 fmol/cell and 1.59 fmol/cell and 1.47 fmol/cell | 0.53* fmol/cell and 0.55* fmol/cell | 0.51 fmol/cell and 0.42 fmol/cell and 0.61 fmol/cell | – | – | –
NCCCCCCCCCCCCN1CCN(CC(=O)[O-])CCN(CC(=O)[O-])CCN(CC(=O)[O-])CC1.[Gd+3] [Molecule 10] | −1.63 ± 0.04 | 45.53 fmol/cell and 50.10 fmol/cell and 48.08 fmol/cell | 14.47 fmol/cell and 26.93 fmol/cell and 18.26 fmol/cell | – | 3.88 fmol/cell and 5.08 fmol/cell and 4.54 fmol/cell | – | – | –
O=C([O-])CN1CCNCCN(CC(=O)[O-])CCN(CC(=O)[O-])CC1.[Gd+3] [Molecule 7] | −3.71 ± 0.02 | 0.53 fmol/cell and 0.39 fmol/cell (2×) and 0.42 fmol/cell and 0.44 fmol/cell (2×) and 1.09 fmol/cell and 0.73 fmol/cell | 0.63 fmol/cell and 0.55 fmol/cell and 0.68 fmol/cell and 0.50 fmol/cell and 1.05 fmol/cell and 1.36 fmol/cell | 6.54 fmol/cell and 4.00 fmol/cell | 0.47 fmol/cell and 0.39 fmol/cell and 0.51 fmol/cell and 0.46 fmol/cell and 0.75 fmol/cell and 0.83 fmol/cell | – | 4.93* fmol/cell and 4.31* fmol/cell | –
O=C([O-])CN1CCN(CC(=O)[O-])CCN(CC(O)Cn2cc(CCCO)nn2)CCN(CC(=O)[O-])CC1.[Gd+3] (centres unmarked) [Molecule 2] | −3.98 ± 0.06 | 0.84 fmol/cell and 0.81 fmol/cell and 0.90 fmol/cell | 0.59 fmol/cell and 0.88 fmol/cell and 0.70 fmol/cell | – | 0.30 fmol/cell and 0.38 fmol/cell and 0.36 fmol/cell | – | – | –
CCCCc1cn(CC(O)CN2CCN(CC(=O)[O-])CCN(CC(=O)[O-])CCN(CC(=O)[O-])CC2)nn1.[Gd+3] (centres unmarked) [Molecule 1] | −2.18 ± 0.02 | 0.63 fmol/cell (2×) and 0.44 fmol/cell and 0.58 fmol/cell and 0.57 fmol/cell (2×) and 0.76 fmol/cell | 0.59 fmol/cell and 0.58 fmol/cell and 0.39 fmol/cell and 0.77 fmol/cell and 0.86 fmol/cell and 0.76 fmol/cell and 0.64 fmol/cell | 1.18 fmol/cell and 1.45 fmol/cell | 0.62 fmol/cell and 0.67 fmol/cell and 0.36 fmol/cell and 0.63 fmol/cell and 0.40 fmol/cell | 1.11 fmol/cell and 1.24 fmol/cell | – | –
NCCCCCCN1CCN(CC(=O)[O-])CCN(CC(=O)[O-])CCN(CC(=O)[O-])CC1.[Gd+3] [Molecule 9] | −3.98 ± 0.07 | 28.63 fmol/cell and 32.09 fmol/cell and 29.78 fmol/cell | 11.67 fmol/cell and 20.36 fmol/cell and 14.83 fmol/cell | – | 6.86 fmol/cell and 7.54 fmol/cell and 4.78 fmol/cell and 7.33 fmol/cell and 8.77 fmol/cell and 6.65 fmol/cell and 7.40 fmol/cell | – | 13.02* fmol/cell and 14.46* fmol/cell and 18.05 fmol/cell and 24.04 fmol/cell | same result
O=C([O-])CN1CCN(CC(=O)[O-])CCN(CC(O)Cn2cc(CCCc3ccccc3)nn2)CCN(CC(=O)[O-])CC1.[Gd+3] (centres unmarked) [Molecule 6] | −1.26 ± 0.08 | 1.13 fmol/cell and 0.53 fmol/cell and 0.68 fmol/cell and 0.73 fmol/cell (2×) and 0.47 fmol/cell and 0.87 fmol/cell | 1.29 fmol/cell and 1.24 fmol/cell and 0.67 fmol/cell and 0.64 fmol/cell | 4.12 fmol/cell | 0.78 fmol/cell and 0.72 fmol/cell and 0.40 fmol/cell and 0.47 fmol/cell and 0.58 fmol/cell | 3.26 fmol/cell | – | –
O=C([O-])CN1CCN(CC(=O)[O-])CCN(CC(O)Cn2cc(CCCOP(=O)(O)O)nn2)CCN(CC(=O)[O-])CC1.[Gd+3] (centres unmarked) [Molecule 3] | −4.05 ± 0.17 | 1.84 fmol/cell and 1.36 fmol/cell and 1.29 fmol/cell | 1.61 fmol/cell and 1.64 fmol/cell and 1.41 fmol/cell | – | 0.74 fmol/cell and 0.90 fmol/cell and 0.65 fmol/cell | – | – | –
NCCCN1CCN(CC(=O)[O-])CCN(CC(=O)[O-])CCN(CC(=O)[O-])CC1.[Gd+3] [Molecule 8] | −3.86 ± 0.01 | 13.40 fmol/cell and 20.22 fmol/cell and 14.84 fmol/cell | 7.61 fmol/cell and 7.56 fmol/cell and 6.31 fmol/cell | – | 0.68 fmol/cell and 1.78 fmol/cell and 1.87 fmol/cell and 1.16 fmol/cell and 0.94 fmol/cell and 1.30 fmol/cell and 1.48 fmol/cell | – | – | –
C[N+](C)(C)CCCc1cn(CC(O)CN2CCN(CC(=O)[O-])CCN(CC(=O)[O-])CCN(CC(=O)[O-])CC2)nn1.[Gd+3] (centres unmarked) [Molecule 5] | −4.33 ± 0.46 | 0.37 fmol/cell and 0.29 fmol/cell and 0.42 fmol/cell and 0.43 fmol/cell | 0.42 fmol/cell and 0.36 fmol/cell and 0.32 fmol/cell | – | 0.52 fmol/cell and 0.29 fmol/cell and 0.25 fmol/cell and 0.35 fmol/cell and 0.37 fmol/cell | 2.73 fmol/cell | – | –
